Each block holds one molecule with its values, some of them ahead of it.
What was measured:
CYP2D6 = CYP2D6 (Homo sapiens (Human), UniProt P10635); test: CYP inhibition assay, human liver microsomes, dextromethorphan O-demethylase; type: in vitro ADME; settings: pooled human liver microsomes, dextromethorphan substrate; read-out: CYP IC50 2D6
Description: (§1) Inhibition of cytochromes P450 (CYPs) 2C9, 2D6 and 3A4 was assessed using human liver microsomes and CYP-selective substrate metabolism reactions. 50 μl incubations were made up containing (finally) 0.2 mg/ml pooled human liver microsomes, 5 μM substrate (diclofenac for CYP2C9 [4′ hydroxylase], dextromethorphan for CYP2D6 [O-demethylase] or midazolam for CYP3A4 [1′ hydroxylase]), 0.25 μl, DMSO containing test inhibitor and NADPH regenerating system. Test inhibitor concentrations of 50, 16.7, 5.6, 1.9, 0.6 and 0.2 μM were assessed in singlicate. Incubations were prewarmed to 37° C. for 10 minutes before initiation by addition of NADPH regenerating system. Incubations were quenched after 5 minutes (20 minutes for dextromethorphan) by addition of 50 μl cold acetonitrile containing 20 ng/ml 4-OH-diclofenac-13C6, 20 ng/mL dextrorphan-D3 and 20 ng/mL 1-OH-midazolam-D4. Quenched incubates were stored at −20° C. for at least 1 hour before centrifugation (20,000×g, 20 minutes). Supernatants were removed and diluted 1:1 with water prior to analysis using a RapidFire sample injector system and API4000 mass spectrometer. Peak areas for substrate, metabolite and stable-labelled metabolite standard were determined using MS/MS. […] The percentage of (DMSO) control activity was calculated for each incubate and IC50 values estimated by non-linear regression. […]

BACE2 = BACE2 (Rattus norvegicus (Rat), UniProt Q6IE75); test: Assay for BACE inhibition by measuring cellular TMEM27 cleavage (INS-TMEM27 cells, ELISA); type: cell-based; settings: INS-TMEM27 (INS1e-derived) cells; shed TMEM27 in supernatant; read-out: BACE2 cell act. IC50
BACE2, sequence (Q6IE75 63-514): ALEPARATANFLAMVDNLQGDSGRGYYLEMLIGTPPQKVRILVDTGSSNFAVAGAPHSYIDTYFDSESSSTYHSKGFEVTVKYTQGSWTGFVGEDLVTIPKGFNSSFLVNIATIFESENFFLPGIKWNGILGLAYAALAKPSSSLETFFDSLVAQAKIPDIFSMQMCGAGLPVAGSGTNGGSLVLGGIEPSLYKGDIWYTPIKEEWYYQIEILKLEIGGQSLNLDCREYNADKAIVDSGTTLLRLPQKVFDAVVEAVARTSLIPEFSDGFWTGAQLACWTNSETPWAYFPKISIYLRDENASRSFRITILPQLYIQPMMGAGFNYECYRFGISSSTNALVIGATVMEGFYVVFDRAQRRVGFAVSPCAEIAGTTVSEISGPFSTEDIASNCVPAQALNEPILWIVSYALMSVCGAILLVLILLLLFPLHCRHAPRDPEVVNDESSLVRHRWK
From the text: Assay for BACE Inhibition by Measuring Cellular TMEM27 Cleavage:
The assay uses the principle of inhibition of human TMEM27 cleavage by endogenous cellular BACE2 in the Ins1e rat cell line and shedding from the cell surface into the culture medium, followed by detection in an ELISA assay. Inhibition of BACE2 prevents the cleavage and shedding in a dose-dependent manner
The stable cell line “INS-TMEM27” represents an INS1e-derived cell line with inducible expression (using the TetOn system) of full-length hTMEM27 in a doxycycline-dependent manner. The cells are cultured throughout the experiment in RPMI1640 +Glutamax (Invitrogen) Penicillin/Streptomycin, 10% Fetal bovine serum, […], […], 100 micrograms/ml G418 and 100 microgram/ml hygromycin and are grown inadherent culture at 37° C. in a standard CO2 cell culture incubator.
INS-TMEM27 cells are seeded in 96-well plates. After 2 days in culture, BACE2 inhibitor is added in a range of concentrations as required by the assay and after a further two hours, doxycycline is added to a final concentration of 500 ng/ml. The cells are incubated for a further 46 hours and the supernatant harvested for detection of shed TMEM27.
An ELISA assay (using a pair of mouse anti-human-TMEM27 antibodies, raised against the extracellular domain of TMEM27) is used for detection of TMEM27 in the culture medium. An EC50 for BACE2 inhibition is calculated using the ELISA readout for each inhibitor concentration with standard curve-fitting software such as XLFit for the Excel spreadsheet program.

BACE1 = BACE1 (Homo sapiens (Human), UniProt P56817); test: Cellular Aβ-lowering assay (Aβ40 ELISA, HEK293 cells expressing human APP695); type: cell-based; settings: HEK293 cells stably transfected with human APP695; 18-20 hrs incubation; Aβ40 in supernatant; read-out: BACE1 cell act. Aβ40 IC50
BACE1, sequence (P56817 46-501): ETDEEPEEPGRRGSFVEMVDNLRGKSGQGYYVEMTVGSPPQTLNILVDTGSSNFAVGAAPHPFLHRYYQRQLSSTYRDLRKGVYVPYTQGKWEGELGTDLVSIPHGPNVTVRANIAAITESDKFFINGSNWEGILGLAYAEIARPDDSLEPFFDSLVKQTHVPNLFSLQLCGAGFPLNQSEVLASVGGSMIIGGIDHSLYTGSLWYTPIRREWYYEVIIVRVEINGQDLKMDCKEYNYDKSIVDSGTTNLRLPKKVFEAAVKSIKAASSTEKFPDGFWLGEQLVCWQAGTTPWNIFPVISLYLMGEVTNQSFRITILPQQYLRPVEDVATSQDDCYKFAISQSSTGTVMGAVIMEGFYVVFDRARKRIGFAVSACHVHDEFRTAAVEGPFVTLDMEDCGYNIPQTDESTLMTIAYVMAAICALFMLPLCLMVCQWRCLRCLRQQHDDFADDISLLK
Description: Cellular Aβ-Lowering Assay:
Human HEK293 cells which are stably transfected with a vector expressing a cDNA of the human APP wt gene (APP695) were used to assess the potency of the compounds in a cellular assay. The cells were seeded in 96-well microtiter plates in cell culture medium (Iscove, plus 10% (v/v) fetal bovine serum, glutamine, penicillin/streptomycin) to about 80% confluence and the compounds were added at a 10× concentration in 1/10 volume of medium without FCS containing 8% DMSO (final concentration of DMSO was kept at 0.8% v/v). After 18-20 hrs incubation at 37° C. and 5% CO2 in a humidified incubator the culture supernatant was harvested for the determination of […] concentrations. 96well ELISA plates (e.g., Nunc MaxiSorb) were coated with monoclonal antibody which specifically recognize the C-terminal end of […] (Brockhaus et al., NeuroReport 9, 1481-1486; 1998). After blocking of non-specific binding sites with e.g. 1% BSA and washing, the culture supernatants were added in suitable dilutions together with a horseradish peroxidase-coupled Aβ detection antibody (e.g., antibody 4G8, Senetek, Maryland Heights, Mo.) and incubated for 5 to 7 hrs. Subsequently the wells of the microtiter plate were washed extensively with Tris-buffered saline containing 0.05% Tween 20 and the assay was developed with tetramethylbenzidine/H2O2 in citric acid buffer. After stopping the reaction with one volume 1 N H2SO4 the reaction was measured in an ELISA reader at 450 nm wavelength. The concentrations of Aβ in the culture supernatants were calculated from a standard curve obtained with known amounts of pure Aβ peptide.

CYP2C9 = CYP2C9 (Homo sapiens (Human), UniProt P11712); test: CYP inhibition assay, human liver microsomes, diclofenac 4' hydroxylase; type: in vitro ADME; settings: pooled human liver microsomes, diclofenac substrate; read-out: CYP IC50 2C9
CYP2C9, sequence (P11712 whole entry): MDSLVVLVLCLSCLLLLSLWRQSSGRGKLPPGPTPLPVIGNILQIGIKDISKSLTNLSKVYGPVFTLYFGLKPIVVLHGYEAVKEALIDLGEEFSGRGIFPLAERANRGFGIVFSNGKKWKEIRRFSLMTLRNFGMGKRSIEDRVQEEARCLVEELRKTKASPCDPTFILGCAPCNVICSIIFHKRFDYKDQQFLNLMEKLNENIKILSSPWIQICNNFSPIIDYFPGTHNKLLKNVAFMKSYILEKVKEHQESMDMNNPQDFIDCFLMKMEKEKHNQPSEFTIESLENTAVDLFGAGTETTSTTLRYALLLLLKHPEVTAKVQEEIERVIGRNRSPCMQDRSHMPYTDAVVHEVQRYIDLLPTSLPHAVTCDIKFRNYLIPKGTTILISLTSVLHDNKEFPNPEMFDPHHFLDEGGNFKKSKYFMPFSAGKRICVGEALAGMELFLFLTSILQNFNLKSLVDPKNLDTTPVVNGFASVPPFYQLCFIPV
Description: as §1

CYP3A4 = CYP3A4 (Homo sapiens (Human), UniProt P08684); test: CYP inhibition assay, human liver microsomes, midazolam 1' hydroxylase; type: in vitro ADME; settings: pooled human liver microsomes, midazolam substrate; read-out: CYP IC50 3A4
CYP3A4, sequence (P08684 whole entry): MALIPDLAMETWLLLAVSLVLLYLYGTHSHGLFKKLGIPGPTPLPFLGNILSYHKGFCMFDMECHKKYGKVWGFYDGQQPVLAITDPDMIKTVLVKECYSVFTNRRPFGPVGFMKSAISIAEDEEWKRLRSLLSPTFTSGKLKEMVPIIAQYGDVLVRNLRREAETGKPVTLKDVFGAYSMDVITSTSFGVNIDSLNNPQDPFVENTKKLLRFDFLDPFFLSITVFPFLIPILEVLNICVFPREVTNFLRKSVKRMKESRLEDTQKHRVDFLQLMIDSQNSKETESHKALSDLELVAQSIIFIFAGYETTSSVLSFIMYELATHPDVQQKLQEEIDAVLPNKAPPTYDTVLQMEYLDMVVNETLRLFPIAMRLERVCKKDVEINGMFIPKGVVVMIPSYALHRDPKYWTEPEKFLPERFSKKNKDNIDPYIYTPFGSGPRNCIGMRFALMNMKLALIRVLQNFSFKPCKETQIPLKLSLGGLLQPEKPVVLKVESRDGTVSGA
Description: as §1

[1] = target: recombinant human cathepsin E (Homo sapiens (Human), UniProt P14091); test: Cathepsin E fluorescent substrate kinetic assay (MR121); type: biochemical; settings: pH 4.5, substrate MR121-CKLVFFAEDW
recombinant human cathepsin E, sequence (P14091 54-396): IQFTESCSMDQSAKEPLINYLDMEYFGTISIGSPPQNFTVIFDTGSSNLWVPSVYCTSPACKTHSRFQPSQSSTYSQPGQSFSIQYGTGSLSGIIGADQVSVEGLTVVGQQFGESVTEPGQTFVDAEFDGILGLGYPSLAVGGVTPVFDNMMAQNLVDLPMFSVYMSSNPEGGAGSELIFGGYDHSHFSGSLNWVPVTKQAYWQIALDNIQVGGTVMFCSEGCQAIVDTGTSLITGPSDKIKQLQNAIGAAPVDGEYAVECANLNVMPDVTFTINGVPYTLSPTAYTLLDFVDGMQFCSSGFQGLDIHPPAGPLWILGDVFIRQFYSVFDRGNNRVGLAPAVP
From the text: (§2) Cathepsin D and Cathepsin E Fluorescent Substrate Kinetic Assays General Assay Principle
(§3) The MR121 fluorescence assays described below are based on the fact that MR121 forms a non-fluorescent ground state complex with tryptophan. In solution this formation occurs at millimolar concentrations of tryptophan. The mechanism can be used to design a generic biochemical assay for proteases. A substrate peptide is labeled at the N-terminus with tryptophan and at the C-terminus with the fluorophore MR121 (for cathepsin D the 10 amino acid peptide WTSVLMAAPC-MR121 was used; for cathepsin E, MR121-CKLVFFAEDW was used). In absence of protease activity, the substrates remain intact and the MR121 fluorescence is reduced by the high local Trp-concentration. If the substrates are cleaved by the enzymes the MR121 fluorescence is recovered.
(§4) The fluorescent substrate cathepsin D and cathepsin E kinetic assays were performed at room temperature in 384-well microtiter plates (black with clear flat bottom, non binding surface plates from Corning) in a final volume of 51 μl. […] The enzymatic reaction was followed in a plate: vision reader (Perkin Elmer) (excitation wavelength: 630 nm; emission: 695 nm) for at least 30 minutes in a kinetic measurement detecting an increase of MR121 fluorescence during the reaction time. […]

[2] = target: cathepsin D (from human liver) (Homo sapiens (Human), UniProt P07339); test: Cathepsin D fluorescent substrate kinetic assay (MR121); type: biochemical; settings: pH 5.5, substrate WTSVLMAAPC-MR121
cathepsin D (from human liver), sequence (P07339 169-412): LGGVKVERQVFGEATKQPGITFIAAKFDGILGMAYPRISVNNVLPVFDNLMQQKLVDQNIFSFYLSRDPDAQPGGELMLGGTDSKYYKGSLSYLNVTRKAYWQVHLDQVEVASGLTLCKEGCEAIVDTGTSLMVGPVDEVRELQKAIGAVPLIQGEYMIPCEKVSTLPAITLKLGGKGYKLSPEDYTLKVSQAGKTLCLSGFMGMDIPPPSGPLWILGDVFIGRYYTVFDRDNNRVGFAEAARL
cathepsin D (from human liver), sequence (P07339 65-162): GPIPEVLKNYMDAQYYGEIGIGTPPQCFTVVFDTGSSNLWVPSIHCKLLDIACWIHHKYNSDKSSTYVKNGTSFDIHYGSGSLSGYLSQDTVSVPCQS
From the text: as §2, §3, §4

CYP2D6, sequence (P10635 whole entry): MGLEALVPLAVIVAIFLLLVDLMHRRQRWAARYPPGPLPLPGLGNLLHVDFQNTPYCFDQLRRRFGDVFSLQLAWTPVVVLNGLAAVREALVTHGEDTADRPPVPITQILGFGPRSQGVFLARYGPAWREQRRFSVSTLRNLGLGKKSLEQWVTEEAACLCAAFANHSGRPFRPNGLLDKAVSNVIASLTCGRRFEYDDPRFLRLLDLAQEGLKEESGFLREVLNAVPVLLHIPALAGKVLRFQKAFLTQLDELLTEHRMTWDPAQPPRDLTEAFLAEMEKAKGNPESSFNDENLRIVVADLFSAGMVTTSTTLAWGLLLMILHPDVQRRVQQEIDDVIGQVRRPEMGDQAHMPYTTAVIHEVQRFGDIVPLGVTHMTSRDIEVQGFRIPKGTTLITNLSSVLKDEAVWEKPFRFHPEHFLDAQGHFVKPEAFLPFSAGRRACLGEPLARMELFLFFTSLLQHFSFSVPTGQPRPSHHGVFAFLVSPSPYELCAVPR

SMILES: C[C@@]1(c2cc(Nc3cc(Cl)cc4cc(Cl)cnc34)ccc2F)COCC(N)=N1 [Example 27, [3-((R)-5-Amino-3-methyl-3,6-dihydro-2H-[1,4]oxazin-3-yl)-4-fluoro-phenyl]-(3,6-dichloro-quinolin-8-yl)-amine]
IC50 (CYP2D6): 4.5 µM | IC50 (BACE2): 0.558 µM | IC50 (BACE1): 0.66 µM | IC50 (CYP2C9): > 50 µM | IC50 (CYP3A4): 33 µM

SMILES: C[C@@]1(c2cc(Nc3cccc4cc(OC(F)F)cnc34)ccc2F)COCC(N)=N1 [Example 29, [3-((R)-5-Amino-3-methyl-3,6-dihydro-2H-[1,4]oxazin-3-yl)-4-fluoro-phenyl]-(3-difluoromethoxy-quinolin-8-yl)-amine]
IC50 (BACE2): 2.3 µM | IC50 (BACE1): 0.27 µM | IC50 [1]: 17.6 µM | IC50 [2]: 21.1 µM

SMILES: C[C@@]1(c2cc(Nc3ccon3)ccc2F)COCC(N)=N1 [Example 33, (R)-5-[2-Fluoro-5-(isoxazol-3-ylamino)-phenyl]-5-methyl-5,6-dihydro-2H-[1,4]oxazin-3-ylamine]
IC50 (BACE2): 1.21 µM | IC50 (BACE1): 0.58 µM

SMILES: Cn1nc(Nc2ccc(F)c([C@@]3(C)COCC(N)=N3)c2)c2ccc(Cl)cc21 [Example 34, (S)-5-(5-(6-chloro-1-methyl-1H-indazol-3-ylamino)-2-fluorophenyl)-5-methyl-5,6-dihydro-2H-1,4-oxazin-3-amine]
IC50 (CYP2D6): 2 µM | IC50 (BACE2): 1.48 µM | IC50 (BACE1): 1.04 µM | IC50 (CYP2C9): 6.7 µM | IC50 (CYP3A4): 25 µM

SMILES: C[C@]1(c2cc(NC3CCc4cc(Cl)ccc43)ccc2F)COCC(N)=N1 (stereo partly drawn) [Example 35, (S)-5-[5-(5-Chloro-indan-1-ylamino)-2-fluoro-phenyl]-5-methyl-5,6-dihydro-2H-[1,4]oxazin-3-ylamine]
IC50 (BACE2): 0.732 µM | IC50 (BACE1): 0.1 µM

IC50 (BACE1): 0.25 µM | IC50 [1]: 5 µM | IC50 [2]: 2.6 µM
SMILES: CC1(c2cccc(Nc3cc(F)cc4cc(Cl)cnc34)c2)COCC(N)=N1 (stereo not shown) [Example 36, [3-(5-Amino-3-methyl-3,6-dihydro-2H-[1,4]oxazin-3-yl)-phenyl]-(3-chloro-6-fluoro-quinolin-8-yl)-amine]

SMILES: C[C@@]1(c2cc(NC3CCc4cc(Cl)cnc43)ccc2F)COCC(N)=N1 (stereo partly drawn) [Example 40, [3-((R)-5-Amino-3-methyl-3,6-dihydro-2H-[1,4]oxazin-3-yl)-4-fluoro-phenyl]-(3-chloro-6,7-dihydro-5H-[1]pyrindin-7-yl)-amine]
IC50 (BACE2): 1.1 µM | IC50 (BACE1): 0.32 µM

SMILES: C[C@@]1(c2cc(Nc3ccccc3OCC(F)F)ccc2F)COCC(N)=N1 [Example 41, (R)-5-{5-[2-(2,2-Difluoro-ethoxy)-phenylamino]-2-fluoro-phenyl}-5-methyl-5,6-dihydro-2H-[1,4]oxazin-3-ylamine]
IC50 (BACE2): 0.01 µM | IC50 (BACE1): 2.14 µM
